For 6 compounds, viability, T/C and IC50 results are on record in PubChem BioAssay AID2060501 (Molecular Pharmacology Branch, DTP, NCI, 2025).

The test concerns 282377-053-R-J1-PDC complex spheroids, viability. In words: Anticancer human tumor 282377-053-R-J1-PDC patient-derived colon adenocarcinoma cell line growth inhibition [GQUAD]. Conditions: for viability, T/C: stronger effect = lower value. An excerpt:
DNA G-quadruplex Stabilizer Agents in Combinations in Complex Spheroids
A high-throughput screen of multi-cell type tumor spheroids was designed to identify active combinations of DNA G-quadruplex stabilizer agents and targeted small molecules. Complex spheroids include a stromal component modeled by human endothelial cells (HUVEC) and fibroblasts modeled by human mesenchymal stem cells (MSCs). The concentration ranges selected for each drug and investigational agent were based upon clinically achievable concentrations if the clinical Cmax of the agent was known.
Compounds. The drugs and investigational agents: pidnarulex (CX-5461; NSC782164), APTO-253 (NSC789042), BRACO-19 (NSC847499), peposertib (NSC802822), ceralasertib (NSC780249), elimusertib (NSC800525), camonsertib (NSC841442), AZD-1390 (NSC803789), olaparib (NSC753686), talazoparib (NSC767125), ART-558 (NSC835418), sotorasib (NSC818433), MRTX-1133 (NSC836407), SN-38 (NSC673596), topotecan (NSC609699), etoposide (NSC141540), doxorubicin (NSC123127), gemcitabine (NSC613327), 5-fluorouracil (NSC19893), paclitaxel (NSC125973), vemurafenib (NSC761431), panobinostat (NSC761190), R-306465 (JNJ-16241199; NSC773264), adavosertib (NSC754352), TP-3654 (NSC805149), carboplatin (NSC241240), KSQ-4279 (NSC840948), and staurosporine (NSC755774) were obtained from the National Cancer Institute (NCI) Developmental Therapeutics Program Chemical Repository (34). The FDA-approved anticancer drug set is available from the NCI Developmental Therapeutics Program. […] The stock solutions were prepared in dimethyl sulfoxide (DMSO, Sigma-Aldrich, St. Louis, MO, cat. D2650) at 800-fold the tested concentration and stored at -70 degrees C prior to their use. All drugs and investigational agents were tested over a range starting from a high concentration at or near the clinical Cmax and decreasing in half-log increments. If the clinical Cmax for an agent had not been determined, the highest concentration tested was 10 microM.
2.3 Cell Culture. All cells were maintained in an incubator at 37 degrees C and 5% CO2 with 95% humidity. The PDC lines were cultured according to standard operating procedures established by the NCI PDMR. All PDCs were thawed and cultured in Matrigel-coated flasks prepared with a working solution of 1X Ham's F-12 nutrient mix, without supplementation (Invitrogen, cat. 11765054), 100 U/mL penicillin-streptomycin (Invitrogen, cat. 15140122), and 2.5% Matrigel (Corning Inc., cat. 354248) for the first three passages. The 857933-349-R-J2-PDC line was cultured in 6C/Colon 1B media, which includes advanced DMEM/F-12 (Thermo Fisher Scientific, cat. 12634028), 10 mM HEPES (Thermo Fisher Scientific, cat. 15630080), 1X GlutaMAX supplement (Thermo Fisher Scientific, cat. 35050061), 0.1 mg/mL primocin (InvivoGen, cat. ant-pm-2), 10% defined fetal bovine serum, heat inactivated (HyClone Laboratories Inc., cat. SH30070.03HI), 50% L-WRN conditioned media (ATCC, cat. CRL-3276), 1.25 mM N-Acetyl-L-cysteine (Sigma-Aldrich, cat. A9165), 10 mM nicotinamide (Sigma-Aldrich, cat. N0636), 1X B-27 supplement (Thermo Fisher Scientific, cat. 17504044), 1X N-2 supplement (Thermo Fisher Scientific, cat. 17502048), 10 microM Y-27632 dihydrochloride (Tocris Bioscience, cat. 1254), and 50 ng/mL human EGF recombinant protein (Thermo Fisher Scientific, cat. PHG0311). The 485176-168-R4-J1-PDC line was cultured in Panc media, which includes all 6C/Colon 1B media components plus 100 ng/mL human FGF-10 (Thermo Fisher Scientific, cat. 100-26), 500 nM SB-431542 (Selleckchem, cat. S1067), and gastrin (Tocris, cat. 3006).
[…]

[1] abbreviates: curve of first compound, second compound 0.0316 µM.
Setting [2] is: curve of first compound, second compound 0.1 µM.
[3] abbreviates: curve of first compound, second compound 0.316 µM.
The mark [4] stands for this setting: curve of first compound, second compound 1 µM.
Setting [5] is: curve of first compound, second compound 3.16 µM.
The mark [6] stands for this setting: curve of first compound, second compound 10 µM.
Where [7] appears, read: second compound 0.0316 µM, first compound 0.0316 µM.
Where [8] appears, read: second compound 0.0316 µM, first compound 0.1 µM.
Where [9] appears, read: second compound 0.0316 µM, first compound 0.316 µM.
Where [10] appears, read: second compound 0.0316 µM, first compound 1 µM.
The mark [11] stands for this setting: second compound 0.0316 µM, first compound 3.16 µM.
Setting [12] is: second compound 0.0316 µM, first compound 10 µM.
The mark [13] stands for this setting: second compound 0.1 µM, first compound 0.0316 µM.
Where [14] appears, read: second compound 0.1 µM, first compound 0.1 µM.
The mark [15] stands for this setting: second compound 0.1 µM, first compound 0.316 µM.
The mark [16] stands for this setting: second compound 0.1 µM, first compound 1 µM.
[17] abbreviates: second compound 0.1 µM, first compound 3.16 µM.
Setting [18] is: second compound 0.1 µM, first compound 10 µM.
The mark [19] stands for this setting: second compound 0.316 µM, first compound 0.0316 µM.
Setting [20] is: second compound 0.316 µM, first compound 0.1 µM.
Where [21] appears, read: second compound 0.316 µM, first compound 0.316 µM.
[22] abbreviates: second compound 0.316 µM, first compound 1 µM.
The mark [23] stands for this setting: second compound 0.316 µM, first compound 3.16 µM.
The mark [24] stands for this setting: second compound 0.316 µM, first compound 10 µM.
Where [25] appears, read: second compound 1 µM, first compound 0.0316 µM.
[26] abbreviates: second compound 1 µM, first compound 0.1 µM.
The mark [27] stands for this setting: second compound 1 µM, first compound 0.316 µM.
Where [28] appears, read: second compound 1 µM, first compound 1 µM.
The mark [29] stands for this setting: second compound 1 µM, first compound 3.16 µM.
Where [30] appears, read: second compound 1 µM, first compound 10 µM.
[31] abbreviates: second compound 3.16 µM, first compound 0.0316 µM.
Setting [32] is: second compound 3.16 µM, first compound 0.1 µM.
The mark [33] stands for this setting: second compound 3.16 µM, first compound 0.316 µM.
Where [34] appears, read: second compound 3.16 µM, first compound 1 µM.
Setting [35] is: second compound 3.16 µM, first compound 3.16 µM.
The mark [36] stands for this setting: second compound 3.16 µM, first compound 10 µM.
The mark [37] stands for this setting: second compound 10 µM, first compound 0.0316 µM.
The mark [38] stands for this setting: second compound 10 µM, first compound 0.1 µM.
[39] abbreviates: second compound 10 µM, first compound 0.316 µM.
Where [40] appears, read: second compound 10 µM, first compound 1 µM.
Where [41] appears, read: second compound 10 µM, first compound 3.16 µM.
The mark [42] stands for this setting: second compound 10 µM, first compound 10 µM.

Structures are written as SMILES. Several values for one entry are separate records, joined by “and”; a condition that tells them apart may be missing. Equal values may be shown once.
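Further: spheroids exposed to compounds for 7 days before readout.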
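Wherever viability, T/C is given: percent of vehicle DMSO control viability with 100% = untreated-like growth.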

As to `C=CCn1c(=O)c2cnc(Nc3ccc(N4CCN(C)CC4)cc3)nc2n1-c1cccc(C(C)(C)O)n1`, the viability, T/C runs as follows: (compound 0.0316 µM) 88.3% and 90.1% and 98.2%; (compound 0.1 µM) 65.9% and 82.6% and 109%; (compound 0.316 µM) 65.6% and 85.4% and 103%; (compound 1 µM) 66.5% and 75% and 72.4%; (compound 3.16 µM) 72.8% and 29.1% and 28%; (compound 10 µM) 17.2% and 15.7% and 17.4%. For the setting “curve of compound”, the IC50 is 5.01 µM and 1.87 µM and 1.78 µM.

As to `CN(C)c1ccc(Nc2c3ccc(NC(=O)CCN4CCCC4)cc3nc3cc(NC(=O)CCN4CCCC4)ccc23)cc1`, the viability, T/C is 96.9% [middle of 12 runs] (compound 0.1 µM) and 99.2% [middle of 12 runs] (compound 3.16 µM). Also, the IC50 (compound alone, run of 04/22/2024) is above 10 µM.

Regarding `COc1ncnc(C2CC2)c1-c1ncc2cnn(Cc3ccc(-c4nc(C(F)(F)F)cn4C(C)C)cc3)c2n1`, the viability, T/C was 101% and 109% and 104% (compound 0.0316 µM); 102% and 106% and 78.5% (compound 0.1 µM); 102% and 82.9% and 81.3% (compound 0.316 µM); 109% and 91.4% and 78.3% (compound 1 µM); 106% and 86.4% and 75.8% (compound 3.16 µM). The IC50 (curve of compound) was > 10 µM and 5.29 µM.

As for `Cc1cnc(CNC(=O)c2c(=O)c3ccc(N4CCCN(C)CC4)nc3n3c2sc2ccccc23)cn1`, the viability, T/C is 64.5% [middle of 12 runs] (compound 1 µM), 57.2% [middle of 12 runs] (compound 3.16 µM) and 55.2% [middle of 12 runs] (compound 10 µM).

Turning to `CC1COCCN1c1cc(C2(O)CC3CCC(C2)O3)c2cnn(-c3ccn[nH]3)c2n1` (stereo not drawn) + CN(C)c1ccc(Nc2c3ccc(NC(=O)CCN4CCCC4)cc3nc3cc(NC(=O)CCN4CCCC4)ccc23)cc1, the IC50 under setting [1] is 0.73 µM; the half-inhibitory concentration (IC50) under setting [2] was 0.425 µM; the IC50 under setting [3] turned out to be 0.632 µM; the IC50 under setting [4] was 0.649 µM; the IC50 under setting [5] amounted to 0.825 µM; the IC50 under setting [6] worked out at 0.734 µM. Also, the viability, T/C is, setting by setting: under setting [7], 93.4%; under setting [8], 81.5%; under setting [9], 65.1%; under setting [10], 44.9%; under setting [11], 28.1%; under setting [12], 20.9%. Moreover, the viability, T/C is 82.5% under setting [13]; 87.5% under setting [14]; 55.4% under setting [15]; 37.3% under setting [16]; 37.6% under setting [17]; 22.6% under setting [18]. Also, the viability, T/C is 87.2% under setting [19]; 92.6% under setting [20]; 58.3% under setting [21]; 42.3% under setting [22]; 34.8% under setting [23]; 20.6% under setting [24]. Further, the viability, T/C is 102% under setting [25]; 89% under setting [26]; 63.6% under setting [27]; 41% under setting [28]; 29.8% under setting [29]; 21.5% under setting [30]. The viability, T/C by setting is: under setting [31], 81.9%; under setting [32], 81.2%; under setting [33], 80.9%; under setting [34], 43.7%; under setting [35], 33.3%; under setting [36], 23.4%. In addition, the viability, T/C reads like this: under setting [37], 93%; under setting [38], 72.8%; under setting [39], 86.6%; under setting [40], 37.5%; under setting [41], 28.6%; under setting [42], 21.3%.

In the case of `CC1COCCN1c1cc(C2(S(C)(=N)=O)CC2)nc(-c2ccnc3[nH]ccc23)n1` (stereo not drawn) + CN(C)c1ccc(Nc2c3ccc(NC(=O)CCN4CCCC4)cc3nc3cc(NC(=O)CCN4CCCC4)ccc23)cc1, the IC50 under setting [1] is 8.45 µM; the IC50 under setting [2] was determined as 6.78 µM; the IC50 under setting [3] was 6.09 µM; the IC50 under setting [4] is above 10 µM; the IC50 under setting [5] is above 10 µM; the IC50 under setting [6] was above 10 µM. Moreover, the viability, T/C was 102% under setting [7]; 90.3% under setting [8]; 73% under setting [9]; 79.6% under setting [10]; 67.8% under setting [11]; 42.2% under setting [12]. In addition, the viability, T/C is 95.1% under setting [13]; 77.2% under setting [14]; 81.2% under setting [15]; 76.5% under setting [16]; 69.3% under setting [17]; 40.5% under setting [18]. The viability, T/C by setting is: under setting [19], 85.5%; under setting [20], 83.3%; under setting [21], 74.4%; under setting [22], 76.2%; under setting [23], 61.8%; under setting [24], 40.8%. Moreover, the viability, T/C runs as follows: under setting [25], 89.8%; under setting [26], 83.7%; under setting [27], 94.2%; under setting [28], 67.6%; under setting [29], 58.8%; under setting [30], 46.2%. The viability, T/C under setting [31] was 86%; the viability, T/C under setting [32] was 89.2%; the viability, T/C under setting [33] was 86.3%; the viability, T/C under setting [34] was 68.5%; the viability, T/C under setting [35] was 64.4%; the viability, T/C under setting [36] was 49.6%. The viability, T/C is, setting by setting: under setting [37], 82.7%; under setting [38], 88.4%; under setting [39], 116%; under setting [40], 59.7%; under setting [41], 80%; under setting [42], 56%.
